Drawing on PubChem BioAssay (NCI), this text covers GI50 and TGI for 18 compounds.

SMILES strings stand for the structures. Several values for one entry are separate records, joined by “and”; a condition that tells them apart may be missing. Equal entries are not always repeated.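 In this assay, cells in 96-well plates receive the compound at five concentrations for 48 hours. Endpoints are linearly interpolated between the surrounding concentrations. Abbreviation: GI50, concentration required for 50% inhibition of growth. At the TGI there is no net growth.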

What all share (assay): growth of human tumour cells (NCI), 48 h
For assay [1], the system named is NCI-H460 lung.
Assay [2] relates to IGROV1 ovarian.
For assay [3], the system named is SK-OV-3 ovarian.
Assay [4] has as its system M14 melanoma.
Assay [5] deals with U251 CNS.
The subject of assay [6] is HCC-2998 colon.
The subject of assay [7] is OVCAR-5 ovarian.
The subject of assay [8] is 786-0 renal.
For assay [9], the system named is CAKI-1 renal.
Assay [10] has as its system BT-549 breast.

On to `Cc1cc(C)c2c(n1)sc1c(N)ncnc12`, for which the GI50 in assay [1] is above 25 µM; in assay [2] it was 19.7 µM; in [3], above 25 µM; in [4], above 25 µM; in assay [5], above 25 µM; in assay [6], above 25 µM. Besides, the GI50 in assay [7] was above 25 µM; in assay [8] it was above 25 µM; in assay [9], 15.8 µM; in assay [10] it was 11.3 µM. In addition, the TGI in assay [1], in assay [2], in assay [3], in assay [4], in assay [5] and in assay [6] was above 25 µM throughout. For the same compound, the TGI in assay [7], in assay [8], in assay [9] and in assay [10] was above 25 µM each time.
Consider `C=C/C(C)=C/C[C@]1(C)[C@H](C)[C@@H](OC(=O)CCC)[C@H](O)[C@@]23C(=C[C@H](OC)C[C@@H]12)[C@@H](OC(=O)CCC)O[C@H]3OC(C)=O`, for which the GI50 in assay [1] was 1.74 µM; in [2], 1.53 µM; in assay [3], 0.266 µM; in assay [4], 0.881 µM; in assay [5], 1.32 µM; in assay [6] it was 0.238 µM. Also, the GI50 in assay [7] is 0.576 µM; in [8] it was 0.287 µM; in assay [9] it was 1.32 µM; in assay [10] it was 1.11 µM. Moreover, the TGI turned out to be 3.52 µM in assay [1]; 3.39 µM in [2]; 0.806 µM in assay [3]; 2.55 µM in assay [4]; 2.98 µM in [5]; 0.71 µM in assay [6]. In addition, the TGI in assay [7] stood at 2.54 µM; in assay [8] it was 0.888 µM; in assay [9], 2.64 µM; in assay [10], 2.75 µM.
Regarding `CCn1c(-c2cc3c([nH]c4ccccc43)c(-c3cccc(O)c3)n2)n[nH]c1=S`, the GI50 in [1] was 3.04 µM; in [2], 4.23 µM; in [3] it was 4.32 µM; in assay [4], 2.57 µM; in assay [5], 3.18 µM; in [6], 4.77 µM. Further, the GI50 in [7] was 6.34 µM; in assay [8], 2.29 µM; in assay [10], 3.51 µM. Besides, the TGI in assay [1] turned out to be 10.7 µM; in assay [2], 35.5 µM; in [3] it was 17.5 µM; in [4], 11.6 µM; in assay [5], 15.1 µM; in [6], 17.5 µM. The TGI stood at 32.9 µM in [7], 6.31 µM in assay [8] and 25.9 µM in assay [10].
Turning to `Cn1cccc1-c1cc(-c2ccccc2)[nH]c(=O)c1C#N`, the GI50 in assay [1], in [2], in assay [3], in [5], in [6] and in assay [7] was above 100 µM in each case. In addition, the GI50 in assay [8], in assay [9] and in assay [10] was above 100 µM in each case. The TGI in assay [1], in assay [2], in assay [3], in assay [5], in assay [6] and in [7] was above 100 µM each time. The TGI in [8], in assay [9] and in assay [10] was above 100 µM in each case.
For `O=C(/C=C/c1ccc(O)c(O)c1)NCc1c[nH]c2ccccc12`, the GI50 in assay [1] was 50.1 µM; in [2], 57.3 µM; in assay [4], 64.8 µM; in assay [5], 74 µM; in assay [6] it was 35.7 µM; in [7], above 100 µM. For the same compound, the GI50 was 39.7 µM in assay [8], 27.9 µM in [9] and 78.5 µM in [10]. The TGI in [1] was above 100 µM; in [2], above 100 µM; in [4] it was above 100 µM; in assay [5], above 100 µM; in assay [6], 76.1 µM; in assay [7] it was above 100 µM. Besides, the TGI in assay [8], in assay [9] and in assay [10] was above 100 µM each time.
As to `Cc1nc2ccc(Br)cc2c(=O)n1-c1ccc(NC2OCC(O)C(O)C2O)cc1` (stereo unspecified), the GI50 in assay [1] was 47.2 µM and > 100 µM; in [3], above 100 µM; in [4], 17.9 µM and > 100 µM; in [6], 19.1 µM and > 100 µM; in assay [8], 19.1 µM and > 100 µM; in assay [9], 20.3 µM and > 100 µM. In [10], the GI50 is 24.2 µM and 99.5 µM. The TGI in [1] was above 100 µM; in assay [2], above 100 µM; in assay [3] it was above 100 µM; in assay [4], 35.6 µM and > 100 µM; in [6], 40.4 µM and > 100 µM; in assay [7], above 100 µM. For the same compound, the TGI in assay [8] is 42.2 µM and > 100 µM; in assay [9], 44.1 µM and > 100 µM; in assay [10] it was 53.9 µM and > 100 µM.
`C[Si](C)(c1ccc(C(=O)O)cc1)c1ccc(C(=O)O)cc1`: the TGI in [1], in assay [2], in [3], in [4], in [5] and in assay [7] was above 100 µM in each case. Besides, the TGI in assay [8], in assay [9] and in assay [10] was above 100 µM throughout.
On to `CN1CCN(CCOc2ccc(-c3cnc4c(-c5cccc(F)c5)cnn4c3)cc2)CC1`, for which the GI50 in assay [1] was 1.72 µM; in assay [2], 1.82 µM; in assay [4], 1.95 µM; in assay [5], 1.64 µM; in [6] it was 1.7 µM; in assay [7], 1.79 µM. Also, the GI50 in assay [8] is 1.79 µM; in assay [9], 1.61 µM; in assay [10], 3.51 µM. In addition, the TGI in assay [1] is 3.19 µM; in assay [2], 3.8 µM; in assay [4], 4.34 µM; in assay [5] it was 3.57 µM; in assay [6] it was 3.28 µM; in [7] it was 3.55 µM. In addition, the values for the TGI in [8], in [9] and in assay [10] were 3.42 µM, 3.12 µM and 14.1 µM, respectively.
Take `CCOc1ccc2c(c1)C(=O)c1c-2n(CCCBr)c(=O)c2cc([N+](=O)[O-])ccc12`: the GI50 in assay [1] is 1.97 µM; in assay [3], 17.6 µM; in assay [4], 6.58 µM; in assay [5] it was 6.13 µM; in [6], 57.7 µM; in [7], 59.4 µM. For the same compound, the GI50 in assay [8] was 13.6 µM; in assay [9], 8.15 µM; in [10], 28.8 µM. Further, the TGI in [1] is 91.6 µM; in [3], above 100 µM; in assay [4] it was above 100 µM; in [5], above 100 µM; in assay [6], above 100 µM; in [7] it was above 100 µM. Further, the TGI in assay [8], in assay [9] and in [10] was above 100 µM throughout.
For the compound `CCCCCCCC(=O)OCCCC1[C@]2(C)CC[C@@]3(C)C([C@H](C)CCC=C(C)C)CC[C@]3(C)C2CC[C@]12OC2(C)C` (stereo partly specified), the GI50 is 26.2 µM in [1]; 34.8 µM in [2]; above 100 µM in assay [4]; 27.7 µM in assay [5]; 18.6 µM in assay [6]; above 100 µM in [7]. The GI50 in [8] is above 100 µM; in assay [9] it was 23.8 µM; in [10], 88.6 µM. For the same compound, the TGI in [1] was 71 µM; in assay [2] it was above 100 µM; in assay [4] it was above 100 µM; in assay [5], 93.3 µM; in [6], 47.5 µM; in assay [7], above 100 µM. Moreover, the results for the TGI in [8], in [9] and in assay [10] were above 100 µM, 48.9 µM and above 100 µM, respectively.
Take `O=C(O)/C=C\C(=O)Nc1ccccn1`: the TGI in assay [1], in [2], in assay [3], in [4], in assay [5] and in assay [7] was above 100 µM throughout. Moreover, the TGI in assay [8], in assay [9] and in assay [10] was above 100 µM in each case.
As to `O=c1c2cc(-c3ccccc3)sc2ncn1Cc1ccc(Cl)c(Cl)c1`, the GI50 in assay [1] is 12.1 µM; in assay [2] it was 1.93 µM; in assay [3], 19.4 µM; in assay [4], 25.7 µM; in assay [5], 15.5 µM; in [7] it was 5.46 µM. The GI50 in [8] is 14.2 µM; in assay [9], 16.4 µM; in assay [10] it was 21 µM. The TGI in assay [1] is above 100 µM; in assay [2] it was 34.9 µM; in assay [3] it was 58 µM; in [4], above 100 µM; in [5], 38.6 µM; in [7] it was above 100 µM. In addition, the TGI in assay [8] stood at 43.3 µM; in assay [9] it was 49.1 µM; in assay [10], 60.4 µM.
Turning to `[O-][N+]1(CC[N+]2([O-])CCCCC2)CCCCC1`, the TGI in assay [1], in assay [2], in assay [3], in assay [4], in assay [5] and in [7] was above 100 µM in each case. Also, the TGI in assay [8], in assay [9] and in [10] was above 100 µM throughout.
Consider `Cc1cc(Cl)ccc1OCC(=O)Nc1nc(N)nc(N)n1`, for which the TGI in [1], in assay [2], in assay [3], in assay [4], in [5] and in assay [7] was above 100 µM throughout. Further, the TGI in assay [8], in assay [9] and in [10] was above 100 µM throughout.
On to `CCN1CCN(c2cc(C)nc(N(CCCNc3ccnc4cc(Cl)ccc34)Cc3ccc4c(c3)OCO4)n2)CC1`, for which the GI50 in assay [1] is 3.07 µM; in assay [2], 3.46 µM; in assay [3] it was 14.8 µM; in assay [4], 1.89 µM; in assay [5], 2.13 µM; in assay [6] it was 2.4 µM. The GI50 in assay [7] is 5.32 µM; in assay [8], 1.81 µM; in assay [10], 2.72 µM. The TGI is 11.2 µM in assay [1]; 16.7 µM in assay [2]; 34.8 µM in [3]; 3.5 µM in assay [4]; 4.73 µM in assay [5]; 5.39 µM in assay [6]. Besides, the TGI in [7] was above 100 µM; in [8], 3.8 µM; in assay [10], 8.5 µM.
For `c1cc(-c2nnc(SSc3ncnc4nc[nH]c34)o2)ccn1`, the GI50 in [1] was 5.15 µM; in [3], 0.45 µM; in assay [4], 0.405 µM; in assay [5], 7.22 µM; in assay [6], 3.38 µM; in [7], 3.1 µM. Moreover, the GI50 in [8] was 0.986 µM; in assay [9], 0.472 µM; in assay [10], 9.47 µM. Also, the TGI in [1], in assay [3], in [4], in [5], in assay [6] and in [7] was above 100 µM throughout. Moreover, the TGI was above 100 µM in [8], 5.17 µM in assay [9] and above 100 µM in assay [10].
For `CCc1ccccc1NC(=O)/C=C/c1ccccc1`, the TGI in [1], in [3], in assay [4], in assay [5], in assay [6] and in assay [7] was above 100 µM each time. Also, the TGI in assay [8], in assay [9] and in assay [10] was above 100 µM each time.
In the case of `CCC(C)Oc1nc2c(c(=O)n(C)c(=O)n2C)n1C` (stereo unspecified), the GI50 in assay [1], in assay [2], in [3], in assay [4], in assay [5] and in [7] was above 100 µM in each case. Moreover, the GI50 in [8], in [9] and in assay [10] was above 100 µM each time. The TGI in assay [1], in [2], in assay [3], in [4], in assay [5] and in [7] was above 100 µM in each case. For the same compound, the TGI in assay [8], in assay [9] and in assay [10] was above 100 µM throughout.
